Reference: publication PMC8478281, “Targeting the FtsZ Allosteric Binding Site with a Novel Fluorescence Polarization Screen, Cytological and Structural Approaches for Antibacterial Discovery” (Journal of Medicinal Chemistry, 2021)
≈ marks a conversion by molar mass, not a printed value. Read-outs that look alike come from different tables or passages of the source.

Experiments:
BsFtsZ = molecular target: T1, BsFtsZ (Bacillus subtilis, UniProt P17865); assay: Fluorescence anisotropy of probes after consecutive additions of FtsZ, GMPCPP, MgCl2 and PC190723; type: binding; conditions: for Fluorescence anisotropy (r): free probe: probe 10 μM in buffer; for Fluorescence anisotropy (r): + FtsZ (unassbld.) / Fluorescence anisotropy (r): + GMPCPP / Fluorescence anisotropy (r): + MgCl2 (polymer): probe 10 μM, FtsZ 10 μM; for Fluorescence anisotropy (r): + GMPCPP / Fluorescence anisotropy (r): + MgCl2 (polymer): GMPCPP 0.1 mM; for Fluorescence anisotropy (r): + MgCl2 (polymer): MgCl2 10 mM, 5–10 min
T1 construct: made in house
Procedure: (A) Fluorescence anisotropy values of the free probes (10 μM) in buffer, to which FtsZ (10 μM, unassembled) was added, followed by the slowly hydrolyzable GTP analogue GMPCPP (0.1 mM). BsFtsZ polymerization was then induced by the addition of MgCl2 (10 mM) and anisotropy values were recorded 5–10 min later. Nonfluorescent PC190723 (10 μM) was subsequently added to displace the fluorescent probe and anisotropy was measured 5 min later. (B) Fluorescence microscopy images of B. subtilis cells treated for 1.5 h with the minimal division inhibitory concentrations (MDC) of (S)-2 and each enantiomer of 5 (Table S1), acquired employing the probe fluorescence.
(§1) FtsZ from B. subtilis (BsFtsZ) was prepared as described previously.[35] FtsZ was assembled in 50 mM N-(2-hydroxyethyl)piperazine-N′-ethanesulfonic acid (HEPES)-KOH, 50 mM KCl, 1 mM ethylenediaminetetraacetic acid (EDTA), pH 6.8 (HEPES buffer) plus 10 mM MgCl2, and 1 mM GTP or 0.1 mM GMPCPP at 25 °C. FtsZ assembly was monitored by light scattering.[34]

S. aureus Mu50 = assay: Minimal growth inhibitory concentration (broth macrodilution), S. aureus Mu50; type: cell-based, Staphylococcus aureus
Procedure, shortened: (§2)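 Strains grown in cation-adjusted Mueller–Hinton broth at 37 °C (B. subtilis SU570 at 30 °C) to A600 0.1–0.2, then exposed to compounds or DMSO. MIC by broth macrodilution; division phenotype assessed by microscopy and cell measurement.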

[1] = molecular target: T2, FtsZ-GMPCPP polymers (BsFtsZ) (Bacillus subtilis, UniProt P17865); assay: Binding titration of the fluorescent probes to FtsZ polymers by fluorescence anisotropy
T2 construct: made in house
Procedure: as §1
The fluorescence spectra and anisotropy values of the different probes were acquired with a Fluoromax-4 (Horiba Jobin Yvon) photon-counting L-format spectrofluorometer using 2 mm × 10 mm cells at 25 °C, employing the maximum excitation and emission wavelength for each probe with 2 and 5 nm bandwidths, respectively. Anisotropy values were automatically measured as r = (Ivv – G Ivh)/(Ivv + 2G Ivh), where the subscripts refer to the vertical (v) or horizontal (h) positions of the excitation (first subscript) and emission (second subscript) polarizers, and G = Ihv/Ihh. Total intensity values were simultaneously determined as IT = Ivv +2G Ivh. Note that measurement correction procedures with T-format (double channel) fluorometers and with plate readers are slightly different.
FtsZ (10–15 μM) was assembled in HEPES buffer, 10 mM MgCl2, 50 μM GMPCPP at 25 °C for 10 min, and then 0.15% (v/v) glutaraldehyde[36] (distilled grade for microscopy, TAAB Laboratories, U.K.) was added to the solution that was incubated at 25 °C for 10 min more. (This was the minimal glutaraldehyde concentration determined to stabilize FtsZ polymers specifically binding probe 1.) The remains of the cross-linking agent were quenched by adding 60 mM NaBH4, the sample was incubated on ice for 10 min and degassed.[36] Cross-linked polymers were centrifuged for 10 min at 8200g (5000 rpm) and 4 °C in 15 mL Falcon tubes employing a Rotina 380R (Hettich) centrifuge, the supernatant was removed and the pellet was resuspended in the same volume of HEPES buffer, 10 mM MgCl2, containing 5 μM GMPCPP. Fixed FtsZ polymers were active in binding assays after more than 2 days at 4 °C; they could also be frozen in liquid nitrogen with a small loss of binding capacity. […] Cross-linked polymers of SaFtsZ were similarly prepared.
Binding affinity of the probes to FtsZ was measured by an increase in anisotropy of the probe (adapted from ref ([49])). Fixed concentrations of the probes (3 μM) were titrated with different FtsZ polymer concentrations (0–40 μM) in HEPES buffer with Mg^2+, to obtain the anisotropy increment, Δrmax, corresponding to the bound probe. The increase in anisotropy was plotted against the FtsZ polymer concentration (calculated by subtracting from the total protein concentration the critical concentration for polymerization under the same conditions) and iteratively least-squares fitted with an isotherm of binding to one site. The estimated values of Δrmax were used to approximate the free FtsZ concentrations, and these new values were employed again until an unchanging Δrmax value was obtained. The convergent data were used to calculate the binding constant of the fluorescent probe to FtsZ polymers (Table S1).

B. subtilis [2] = assay: Minimal growth inhibitory concentration (broth macrodilution), B. subtilis; type: cell-based, Bacillus subtilis; conditions: Table S1, fluorescent probes
Procedure, shortened: as §2

[3] = molecular target: T3, glutaraldehyde-stabilized FtsZ polymers (Bacillus subtilis, UniProt P17865); assay: Stoichiometry of probe binding by polymer pelleting (centrifugation assay)
T3 construct: made in house
Procedure: The stoichiometry of binding of (R)-5 to stabilized FtsZ polymers was measured using a centrifugation assay adapted from ref ([49]). Then, FtsZ polymers (10 μM) were incubated at 25 °C in HEPES buffer, 10 mM MgCl2, 2% DMSO, and 0.1 mM GMPCPP at 25 °C in the presence of different probe concentrations, in a final volume of 0.1 mL. The samples were then centrifuged for 20 min at 100 000 rpm and 25 °C in a TLA-100 rotor. After centrifugation, the supernatant was carefully withdrawn and the pellets were resuspended in the same volume of buffer. The concentration of the free probe was determined spectrophotometrically in the supernatant, employing an extinction coefficient ε483 = 25 400 M^–1 cm^–1 for (R)-5 and the concentration of probe bound to FtsZ was calculated as the difference of the known total concentration of probe minus the free concentration. To calculate the FtsZ polymer concentration, 5 μL of the resuspended pellet was applied to sodium dodecyl sulfate (SDS)-12% polyacrylamide gels, stained with Coomassie blue, scanned with a CS-800 calibrated densitometer (BioRad), and the protein bands quantified using Quantity One software (BioRad).

B. subtilis [4] = tested on: B. subtilis; design: method as in earlier work; conditions: Table S1; ref 1 (Artola et al., Chem. Sci. 2017); cited from earlier work
[5] = FtsZ-GMPCPP polymers, best fit values from binding titrations
[6] = binding to stabilized FtsZ polymers

T1 sequence (P17865 whole entry): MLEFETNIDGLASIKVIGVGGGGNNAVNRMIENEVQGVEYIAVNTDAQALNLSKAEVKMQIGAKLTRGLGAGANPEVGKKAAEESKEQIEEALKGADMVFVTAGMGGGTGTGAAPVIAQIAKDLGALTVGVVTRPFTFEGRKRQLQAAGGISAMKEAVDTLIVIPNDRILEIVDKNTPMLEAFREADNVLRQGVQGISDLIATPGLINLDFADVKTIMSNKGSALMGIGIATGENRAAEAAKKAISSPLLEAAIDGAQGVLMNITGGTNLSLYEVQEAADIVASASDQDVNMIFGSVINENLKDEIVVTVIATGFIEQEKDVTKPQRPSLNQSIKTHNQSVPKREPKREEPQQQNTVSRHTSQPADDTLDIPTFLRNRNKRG
T2 sequence (P17865 whole entry): as above
T3 sequence (P17865 whole entry): as above

Row | Structure (SMILES) | Fluorescence anisotropy (r): + PC190723 (BsFtsZ; data from Fig. 5A) | Fluorescence anisotropy (r): free probe (BsFtsZ) | Fluorescence anisotropy (r): + FtsZ (unassbld.) (BsFtsZ) | Fluorescence anisotropy (r): + GMPCPP (BsFtsZ) | Fluorescence anisotropy (r): + MgCl2 (polymer) (BsFtsZ) | effect on growth of S. aureus Mu50, in words (S. aureus Mu50; 250 µM) | MIC S. aureus Mu50 (S. aureus Mu50; Table S1, fluorescent probes) [µM] | Imax/Imin [1, 5] | rmax (all probe bound) [1, 5] | rmin (free probe) [1, 5] | Kd [1, 5] [µM] | Kd [1, 6] [µM] | Imax/Imin [1, 6] | rmax (all probe bound) [1, 6] | rmin (free probe) [1, 6] | MIC B. subtilis (B. subtilis [2]) [µM] | stoichiometry of probe binding [3] | Fluorescence anisotropy (r): + PC190723 (BsFtsZ; PC190723 10 μM added to the polymer, 5 min) | MIC B. subtilis (B. subtilis [4]) [µM]
1 | CCC[C@H](COc1ccc(F)c(C(N)=O)c1F)Nc1ccc([N+](=O)[O-])c2nonc12 [(R)-5] | 0.052 | 0.029 | 0.041 | 0.040 | 0.227 | partially inhibited growth | > 250 | 6.2 | 0.272 | 0.029 | 1.9 ± 0.6 | 2 ± 0.5 | 5.0 | 0.268 | 0.029 | 25 (≈ 10.5 µg/mL) | 0.6 molecules per FtsZ monomer | – | –
2 | NC(=O)c1c(F)ccc(OCCNc2ccc([N+](=O)[O-])c3nonc23)c1F [Compound 1, reference compound] | – | 0.022 | 0.027 | 0.026 | 0.080 | – | – | 1.0 | 0.213 | 0.024 | 26 ± 3 | 17 ± 1 | 1.0 | 0.26 | 0.024 | – | – | 0.029 | 800 (≈ 303 µg/mL)
